Assay results reported in patent US10941157B2, “Pesticidal compositions and uses thereof” (Gilead Apollo, LLC, priority 2015, dated 2021).
≈ marks a conversion by molar mass, not a printed value. Read-outs that look alike come from different tables or passages of the source.

Tests used:
Assay type in all cases: cell-based
[1] = tested on: Fusarium virguliforme (Fv); test: In vitro pathogen growth inhibition assay, Fv
Method: (§1) A growth inhibition assay was conducted to determine the ability of compounds to control the growth of fungal pathogens, such as Botrtyis cinerea (Bc), Collectotrichum graminicola (Cg), Diplodia maydis (Dm), Fusarium moniliforme (Fm), Fusarium virguliforme (Fv), Phytophthora capsici (Pc), Rhizoctonia solani (Rs), and Septoria tritici (St). The compounds listed in Table 1 were each dissolved in DMSO at 2.5 mg/ml to produce compound stock solutions (“stocks”). […] Negative controls on each plate included 2% DMSO, water, and a blank (media+2% DMSO). Fungal spores were isolated from previously sub-cultured plates of Botrtyis cinerea (Bc), Collectotrichum graminicola (Cg), Diplodia maydis (Dm), Fusarium moniliforme (Fm), Fusarium virguliforme (Fv), Phytophthora capsici (Pc), and Septoria tritici (St). The isolated spores were diluted to individual concentrations with a 17% V8 liquid media. For Rhizoctonia solani (Rs), 1.5 mm mycelial plugs were used in place of spores and ¼ Potato Dextrose Broth (PDB) was used for dilution. The spore concentrations and plug sizes were based on growth curves generated at 48 hours for each pathogen. In a second 96-well plate, the spores or mycelial plugs, media, diluted compound solutions, and controls were combined. Once the compound was added, a true final concentration of compound in each well was measured by an OD600 reading, which adjusted for any compound precipitation that might have occurred in the well. Plate readings were repeated at both 24 and 48 hours. The blank negative control was used as a background subtraction. Additional visual ratings were performed at both 24 and 48 hours for checking on precipitation and confirming efficacy. […] Both tables list the concentration of each compound that was sufficient to ≥90% inhibition of growth for each of the fungal pathogens listed above. In addition, some of compounds were tested in a yeast growth inhibition assay for Saccharomyces cerevisiae (Sc). Table 2 lists the concentration of the tested compound that was sufficient to ≥75% inhibition of Saccharomyces cerevisiae (Sc).

Diplodia maydis (Dm) = test: In vitro pathogen growth inhibition assay, Dm; conditions: Stenocarpella maydis, 48 h
Method: as §1

Septoria tritici (St) = test: In vitro pathogen growth inhibition assay, St; conditions: Zymoseptoria tritici, 48 h
Method: as §1

Rhizoctonia solani (Rs) = test: In vitro pathogen growth inhibition assay, Rs (mycelial plugs); conditions: Rhizoctonia solani, 48 h
Method: as §1

[2] = tested on: Collectotrichum graminicola (Cg); test: In vitro pathogen growth inhibition assay, Cg; conditions: 48 h
Method: as §1

[3] = tested on: Phytophthora capsici (Pc); test: In vitro pathogen growth inhibition assay, Pc; conditions: 48 h
Method: as §1

[4] = tested on: Fusarium moniliforme (Fm); test: In vitro pathogen growth inhibition assay, Fm; conditions: Fusarium verticillioides
Method: as §1

Botrtyis cinerea (Bc) = test: In vitro pathogen growth inhibition assay, Bc; conditions: 48 h
Method: as §1

[5] = ≥90% growth inhibition, 48 hours, vs 2% DMSO control, read-out: Compound Concentration (ppm) sufficient for ≥90% inhibition of Fv
[6] = ≥90% growth inhibition, 48 hours, vs 2% DMSO control, read-out: Compound Concentration (ppm) sufficient for ≥90% inhibition of Dm
[7] = ≥90% growth inhibition, 48 hours, vs 2% DMSO control, read-out: Compound Concentration (ppm) sufficient for ≥90% inhibition of St
[8] = ≥90% growth inhibition, mycelial plugs, 48 hours, vs 2% DMSO control, read-out: Compound Concentration (ppm) sufficient for ≥90% inhibition of Rs
[9] = ≥90% growth inhibition, 48 hours, vs 2% DMSO control, read-out: Compound Concentration (ppm) sufficient for ≥90% inhibition of Cg
[10] = ≥90% growth inhibition, 48 hours, vs 2% DMSO control, read-out: Compound Concentration (ppm) sufficient for ≥90% inhibition of Pc
[11] = ≥90% growth inhibition, 48 hours, vs 2% DMSO control, read-out: Compound Concentration (ppm) sufficient for ≥90% inhibition of Fm
[12] = ≥90% growth inhibition, 48 hours, vs 2% DMSO control, read-out: Compound Concentration (ppm) sufficient for ≥90% inhibition of Bc
[13] = ≥90% inhibition, 48 hours vs 2% DMSO control, read-out: Compound Concentration (ppm) sufficient for ≥90% inhibition of growth, Fv
[14] = ≥90% inhibition, 48 hours vs 2% DMSO control, read-out: Compound Concentration (ppm) sufficient for ≥90% inhibition of growth, Dm
[15] = ≥90% inhibition, 48 hours vs 2% DMSO control, read-out: Compound Concentration (ppm) sufficient for ≥90% inhibition of growth, St
[16] = ≥90% inhibition, mycelial plugs, 48 hours vs 2% DMSO control, read-out: Compound Concentration (ppm) sufficient for ≥90% inhibition of growth, Rs
[17] = ≥90% inhibition, 48 hours vs 2% DMSO control, read-out: Compound Concentration (ppm) sufficient for ≥90% inhibition of growth, Cg
[18] = ≥90% inhibition, 48 hours vs 2% DMSO control, read-out: Compound Concentration (ppm) sufficient for ≥90% inhibition of growth, Pc
[19] = ≥90% inhibition, 48 hours vs 2% DMSO control, read-out: Compound Concentration (ppm) sufficient for ≥90% inhibition of growth, Fm
[20] = ≥90% inhibition, 48 hours vs 2% DMSO control, read-out: Compound Concentration (ppm) sufficient for ≥90% inhibition of growth, Bc
[21] = concentration sufficient to ≥90% inhibition of growth, 48 hours vs 2% DMSO control, read-out: Compound Concentration (ppm) for ≥90% inhibition, Fv
[22] = concentration sufficient to ≥90% inhibition of growth, 48 hours vs 2% DMSO control, read-out: Compound Concentration (ppm) for ≥90% inhibition, Dm
[23] = concentration sufficient to ≥90% inhibition of growth, 48 hours vs 2% DMSO control, read-out: Compound Concentration (ppm) for ≥90% inhibition, St
[24] = concentration sufficient to ≥90% inhibition of growth, 48 hours vs 2% DMSO control, read-out: Compound Concentration (ppm) for ≥90% inhibition, Rs
[25] = concentration sufficient to ≥90% inhibition of growth, 48 hours vs 2% DMSO control, read-out: Compound Concentration (ppm) for ≥90% inhibition, Cg
[26] = concentration sufficient to ≥90% inhibition of growth, 48 hours vs 2% DMSO control, read-out: Compound Concentration (ppm) for ≥90% inhibition, Pc
[27] = concentration sufficient to ≥90% inhibition of growth, 48 hours vs 2% DMSO control, read-out: Compound Concentration (ppm) for ≥90% inhibition, Fm
[28] = concentration sufficient to ≥90% inhibition of growth, 48 hours vs 2% DMSO control, read-out: Compound Concentration (ppm) for ≥90% inhibition, Bc

SMILES	IC90 [1, 5] [µg/mL]	IC90 (Diplodia maydis (Dm); [6]) [µg/mL]	IC90 (Septoria tritici (St); [7]) [µg/mL]	IC90 (Rhizoctonia solani (Rs); [8]) [µg/mL]	IC90 [2, 9] [µg/mL]	IC90 [3, 10] [µg/mL]	IC90 [4, 11] [µg/mL]	IC90 (Botrtyis cinerea (Bc); [12]) [µg/mL]	IC90 [1, 13] [µg/mL]	IC90 (Diplodia maydis (Dm); [14]) [µg/mL]	IC90 (Septoria tritici (St); [15]) [µg/mL]	IC90 (Rhizoctonia solani (Rs); [16]) [µg/mL]	IC90 [2, 17] [µg/mL]	IC90 [3, 18] [µg/mL]	IC90 [4, 19] [µg/mL]	IC90 (Botrtyis cinerea (Bc); [20]) [µg/mL]	further results
COc1ccc(F)cc1[C@H](Cn1c(=O)n(C(C)(C)C(=O)NC(C)C)c(=O)c2c(C)c(CO)sc21)OCCC#N [Compound I-325]	50 (≈ 89.2 µM)	> 50	> 50	> 50	> 50	> 50	2 (≈ 3.57 µM)	50 (≈ 89.2 µM)	–	–	–	–	–	–	–	–	–
CNC(=O)C(C)(C)n1c(=O)c2c(C)c(-n3nccn3)sc2n(C[C@H](OCCC#N)c2ccccc2OC)c1=O [Compound I-209]	10 (≈ 18.1 µM)	≥ 10	> 50	0.08 (≈ 0.145 µM)	50 (≈ 90.6 µM)	> 50	0.08 (≈ 0.145 µM)	2 (≈ 3.63 µM)	–	–	–	–	–	–	–	–	–
COc1ccc(F)cc1[C@H](Cn1c(=O)n([C@H](C)C(=O)NC(C)C)c(=O)c2c(C)c(-n3nccn3)sc21)OC(C)C [Compound I-061]	–	–	–	–	–	–	–	–	0.4 (≈ 0.698 µM)	0.4 (≈ 0.698 µM)	> 50	0.4 (≈ 0.698 µM)	0.08 (≈ 0.14 µM)	> 50	0.08 (≈ 0.14 µM)	0.4 (≈ 0.698 µM)	–
COc1ccc(F)cc1[C@H](Cn1c(=O)n(C(C)(C)C(=O)O)c(=O)c2c(C)c(-n3nccn3)sc21)OC1CCC(=O)CC1 [Compound I-158]	–	–	–	–	–	–	–	–	> 50	50 (≈ 83.4 µM)	> 50	10 (≈ 16.7 µM)	> 50	50 (≈ 83.4 µM)	2 (≈ 3.34 µM)	10 (≈ 16.7 µM)	–
COc1ccc(F)cc1[C@H](Cn1c(=O)n([C@H](C)C(N)=O)c(=O)c2c(C)c(-n3nccn3)sc21)OCC(C)(C)C#N [Compound I-255]	≥ 10	≥ 10	> 50	2 (≈ 3.51 µM)	≥ 10	> 50	2 (≈ 3.51 µM)	2 (≈ 3.51 µM)	–	–	–	–	–	–	–	–	–
COc1ccccc1[C@H](Cn1c(=O)n(C(C)(C)C(=O)NC2CCC2)c(=O)c2c(C)c(-n3nccn3)sc21)OC1CCOCC1 [Compound I-042]	–	–	–	–	–	–	–	–	0.4 (≈ 0.642 µM)	≥ 0.4	≥ 10	0.08 (≈ 0.128 µM)	≥ 0.4	≥ 10	0.08 (≈ 0.128 µM)	0.4 (≈ 0.642 µM)	–
COc1ccc(F)cc1[C@@](O)(CCO)Cn1c(=O)n(C(C)(C)C(=O)NC(C)C)c(=O)c2c(C)c(-n3nccn3)sc21 [Compound I-276]	2 (≈ 3.4 µM)	2 (≈ 3.4 µM)	> 50	0.08 (≈ 0.136 µM)	2 (≈ 3.4 µM)	10 (≈ 17 µM)	0.4 (≈ 0.68 µM)	2 (≈ 3.4 µM)	–	–	–	–	–	–	–	–	–
COc1ccc(F)cc1[C@H](Cn1c(=O)n([C@@H](C)C(=O)NC(C)C)c(=O)c2c(C)c(-n3nccn3)sc21)OC(C)C [Compound I-057]	–	–	–	–	–	–	–	–	0.4 (≈ 0.698 µM)	0.4 (≈ 0.698 µM)	50 (≈ 87.3 µM)	0.4 (≈ 0.698 µM)	0.08 (≈ 0.14 µM)	50 (≈ 87.3 µM)	0.08 (≈ 0.14 µM)	0.4 (≈ 0.698 µM)	–
COc1ccc(F)cc1[C@H](Cn1c(=O)n(C(C)(C)C(=O)N2CCCC2)c(=O)c2c(C)c(-n3cccn3)sc21)OC[C@H](C)O [Compound I-161]	–	–	–	–	–	–	–	–	10 (≈ 16.3 µM)	50 (≈ 81.5 µM)	> 50	≥ 2	10 (≈ 16.3 µM)	> 50	2 (≈ 3.26 µM)	10 (≈ 16.3 µM)	–
COc1ccc(F)cc1[C@H](Cn1c(=O)n(C(C)(C)C(=O)N2CCCC2)c(=O)c2c(C)c(-n3cccn3)sc21)OC(C)C [Compound I-044]	–	–	–	–	–	–	–	–	0.4 (≈ 0.669 µM)	2 (≈ 3.35 µM)	> 50	0.4 (≈ 0.669 µM)	0.4 (≈ 0.669 µM)	> 50	0.08 (≈ 0.134 µM)	0.4 (≈ 0.669 µM)	–
COc1ccccc1[C@H](Cn1c(=O)n(C(C)(C)C(=O)N2CCCCC2)c(=O)c2c(C)c(-n3cccn3)sc21)OCC(C)C [Compound I-121]	–	–	–	–	–	–	–	–	> 50	≥ 2	> 50	50 (≈ 82.3 µM)	10 (≈ 16.5 µM)	> 50	0.4 (≈ 0.658 µM)	2 (≈ 3.29 µM)	–
COc1ccc(F)cc1[C@H](Cn1c(=O)n(C(C)(C)C(=O)NCC(C)C)c(=O)c2c(C)c(-n3nccn3)sc21)OC1CCOCC1 [Compound I-040]	–	–	–	–	–	–	–	–	0.4 (≈ 0.622 µM)	≥ 0.4	≥ 10	2 (≈ 3.11 µM)	≥ 0.4	> 50	0.08 (≈ 0.124 µM)	0.4 (≈ 0.622 µM)	–
Cc1c(-n2nccn2)sc2c1c(=O)n(C(C)(C)C(=O)NC(C)C)c(=O)n2C[C@H](OC(C)C)c1cc(F)ccc1OCCO [Compound I-071]	–	–	–	–	–	–	–	–	0.4 (≈ 0.649 µM)	0.4 (≈ 0.649 µM)	≥ 50	≥ 0.08	0.4 (≈ 0.649 µM)	≥ 50	0.08 (≈ 0.13 µM)	0.4 (≈ 0.649 µM)	–
COc1ccc(F)cc1[C@H](Cn1c(=O)n(C(C)(C)C(=O)NC(C)C)c(=O)c2c(C)c(-n3nccn3)sc21)OCCCO [Compound I-319]	10 (≈ 16.6 µM)	> 50	> 50	> 50	> 50	> 50	2 (≈ 3.32 µM)	50 (≈ 83 µM)	–	–	–	–	–	–	–	–	–
COc1ccc(F)cc1[C@H](Cn1c(=O)n(C(C)(C)C(=O)NC(C)C)c(=O)c2c(C)c(-n3nccn3)sc21)OCCN(C)C [Compound I-173]	–	–	–	–	–	–	–	–	–	–	–	–	–	–	–	–	IC90 [1, 21]: > 50 µg/mL; IC90 (Diplodia maydis (Dm); [22]): > 50 µg/mL; IC90 (Septoria tritici (St); [23]): > 50 µg/mL; IC90 (Rhizoctonia solani (Rs); [24]): 10 µg/mL (≈ 16.2 µM); IC90 [2, 25]: ≥ 50 µg/mL; IC90 [3, 26]: > 50 µg/mL; IC90 [4, 27]: 50 µg/mL (≈ 81.2 µM); IC90 (Botrtyis cinerea (Bc); [28]): 50 µg/mL (≈ 81.2 µM)
COc1ccc(F)cc1[C@@H](CCCC#N)Cn1c(=O)n(C(C)(C)C(=O)NC(C)C)c(=O)c2c(C)c(-n3ccnn3)sc21 [Compound I-341]	–	–	–	–	–	–	–	–	–	–	–	–	–	–	–	–	IC90 [1, 21]: > 50 µg/mL; IC90 (Diplodia maydis (Dm); [22]): > 50 µg/mL; IC90 (Septoria tritici (St); [23]): > 50 µg/mL; IC90 (Rhizoctonia solani (Rs); [24]): > 50 µg/mL; IC90 [2, 25]: > 50 µg/mL; IC90 [3, 26]: > 50 µg/mL; IC90 [4, 27]: > 50 µg/mL; IC90 (Botrtyis cinerea (Bc); [28]): > 50 µg/mL
COc1ccc(F)cc1[C@H](Cn1c(=O)n([C@@H](C)C(=O)N(C)C(C)C)c(=O)c2c(C)c(-n3nccn3)sc21)OCCC#N [Compound I-204]	2 (≈ 3.35 µM)	2 (≈ 3.35 µM)	> 50	2 (≈ 3.35 µM)	10 (≈ 16.7 µM)	> 50	0.4 (≈ 0.669 µM)	2 (≈ 3.35 µM)	–	–	–	–	–	–	–	–	–
